Structures are written as SMILES.

Here are results for one compound from paper PMC6290777, “Inhalation of the prodrug PI3K inhibitor CL27c improves lung function in asthma and fibrosis” (Nature Communications, 2018).

This test deals with Akt phosphorylation (Ser473) in murine neutrophils. The test is described as follows: Akt phosphorylation in primary neutrophils stimulated with C5a. It is filed as cell-based, mouse. The settings on record: C5a 25 nM. On the procedure:
Neutrophils were obtained from bone marrow isolated from femurs and tibias of C57BL/6J mice. Isolated bone marrow cells were centrifuged 12 min at 260× g and resuspended in 2 ml of physiologic salt solution and neutrophils were subsequently isolated after centrifugation (30 min at 1100× g, 4 °C without brake) through 3 Percoll gradients (from bottom to top: solution B, 75% of a 90% Percoll and 10% HBSS stock solution; solution C, 64% of a 90% Percoll and 10% HBSS stock solution; solution D 52% of a 90% Percoll and 10% HBSS stock solution). Once collected at the interface between the solution B and solution C, the cells were washed three times with 10 ml of physiologic salt solution and centrifuged for 5 min at 260 × g, 4 °C and pretreated for 1 h with CL27c at different concentration. After stimulation with C5a protein were extracted with Laemnli buffer.
For all cell types, phosphorylated Akt (P-Akt, Ser 473, 1:100, Cell Signaling Technology #4060) production was detected by western blot analysis and quantified with ChemiDoc™ XRS system. P-Akt signals are normalized on endogenous. […] To derive the EC50, all data were plotted on a dose response curve (Graph Pad software) and the EC50 was calculated by using the non-linear regression fit (equation [log agonist] vs response–variable slope). […]
panel). […] The respective EC50 was calculated by using nonlinear

As for `COC(=O)c1cccc(Cn2cc(-c3cccc4c(=O)cc(N5CCOCC5)[nH]c34)nn2)c1` [CL27c], the Akt/PKB phosphorylation result is recorded as “readily reduced Akt/PKB phosphorylation”.
